Reference: patent US9328112B2, “Tetracyclic CDK9 kinase inhibitors” (AbbVie Inc., priority 2014, dated 2016)

Assays:
[1] = target: CDK9/Cyclin T1 (Homo sapiens (Human), UniProt P50750); experiment: CDK9 enzyme assay (LANCE ULight TR-FRET kinase assay); format: biochemical; conditions: 1000 μM ATP, 100 nM ULight MBP, kinase reaction 1 hour
Outline: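 TR-FRET readout (ex 320 nm; em 615/665 nm) after 1 h detection with 0.5 nM europium anti-phospho-MBP antibody in 20 mM EDTA stop buffer. Preceding 1 h kinase step: CDK9/Cyclin T1, ULight-MBP substrate at 100 nM, ATP at 1000 μM, compound pre-diluted in DMSO then buffer.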

[2] = tested on: H929 cells; experiment: Cell viability assay (Cell TiterGlo); format: cell-based; conditions: Cell TiterGlo luminescence
Procedure: The cell viability assay was performed using H929 cells. Cells were seeded in 96-well plates at 10,000 cells/well and, after overnight incubation, treated with compounds in a dose response of 3-fold dilutions from 10 μM to 0.005 μM ([…], 0.1% final DMSO concentration). After 24 hours at 37° C., cell viability was measured using Cell TiterGlo reagent (Promega) with a luminescence reader.

[3] = Homo sapiens, NCI-H929, 24 hours at 37° C.

Sequence of CDK9/Cyclin T1 (P50750 whole entry): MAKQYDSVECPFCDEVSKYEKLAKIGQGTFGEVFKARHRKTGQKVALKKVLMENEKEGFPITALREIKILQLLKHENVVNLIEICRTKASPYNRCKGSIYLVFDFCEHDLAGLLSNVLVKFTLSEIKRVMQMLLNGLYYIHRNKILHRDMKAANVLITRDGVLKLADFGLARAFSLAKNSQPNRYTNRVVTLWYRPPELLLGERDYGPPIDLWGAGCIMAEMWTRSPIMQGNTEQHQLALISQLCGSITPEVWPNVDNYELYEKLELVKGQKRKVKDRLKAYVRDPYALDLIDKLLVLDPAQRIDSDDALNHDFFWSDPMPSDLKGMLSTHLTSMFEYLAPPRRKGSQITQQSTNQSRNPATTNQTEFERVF
Sequence of CDK9/Cyclin T1 (O60563 whole entry partner): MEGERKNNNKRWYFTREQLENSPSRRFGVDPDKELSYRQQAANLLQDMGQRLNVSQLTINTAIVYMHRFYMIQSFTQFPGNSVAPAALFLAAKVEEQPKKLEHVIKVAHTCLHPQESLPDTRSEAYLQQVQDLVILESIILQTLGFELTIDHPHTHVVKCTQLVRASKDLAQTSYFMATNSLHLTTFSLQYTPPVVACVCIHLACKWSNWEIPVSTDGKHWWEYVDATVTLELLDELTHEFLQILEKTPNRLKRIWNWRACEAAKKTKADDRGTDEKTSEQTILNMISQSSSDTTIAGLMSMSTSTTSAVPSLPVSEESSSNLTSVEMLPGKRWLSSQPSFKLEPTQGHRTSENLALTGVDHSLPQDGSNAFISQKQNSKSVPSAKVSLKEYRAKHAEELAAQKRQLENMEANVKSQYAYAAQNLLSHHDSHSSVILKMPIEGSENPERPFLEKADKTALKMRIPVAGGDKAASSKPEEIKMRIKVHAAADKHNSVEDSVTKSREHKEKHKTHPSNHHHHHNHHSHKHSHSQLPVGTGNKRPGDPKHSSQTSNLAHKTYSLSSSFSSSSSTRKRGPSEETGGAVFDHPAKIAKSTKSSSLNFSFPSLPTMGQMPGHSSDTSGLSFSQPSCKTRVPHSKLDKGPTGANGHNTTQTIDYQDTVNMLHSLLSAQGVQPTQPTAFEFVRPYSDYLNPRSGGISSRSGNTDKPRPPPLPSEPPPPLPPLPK

IC50 [1]	IC50 [2, 3]	IC50 ([2]; 24 hours at 37° C.)	SMILES
120 nM	490 nM	–	CN1Cc2c(C3=CCN(C4CCC(=CC(=O)OC(C)(C)C)CC4)CC3)[nH]c3nccc(c23)-c2cc(F)ccc21 (stereo not shown) [Example 175, tert-butyl{4-[4-(10-fluoro-7-methyl-6,7-dihydro-4H-3,4,7-triazadibenzo[cd,f]azulen-5-yl)-3,6-dihydropyridin-1(2H)-yl]cyclohexylidene}acetate]
37 nM	190 nM	–	CN1Cc2c(C3=C[C@@H]4COC(=O)N4CC3)[nH]c3nccc(c23)-c2cc(F)ccc21 [Example 151, (8aR)-7-(10-fluoro-7-methyl-6,7-dihydro-4H-3,4,7-triazadibenzo[cd,f]azulen-5-yl)-1,5,6,8a-tetrahydro[1,3]oxazolo[3,4-a]pyridin-3-one]
41 nM	660 nM	–	CN1Cc2c(C3=C[C@H]4COC(=O)N4CC3)[nH]c3nccc(c23)-c2cc(F)ccc21 [Example 152, (8aS)-7-(10-fluoro-7-methyl-6,7-dihydro-4H-3,4,7-triazadibenzo[cd,f]azulen-5-yl)-1,5,6,8a-tetrahydro[1,3]oxazolo[3,4-a]pyridin-3-one]
110 nM	47 nM	–	CC1c2c(C3=CCN(S(C)(=O)=O)CC3)[nH]c3nccc(c23)-c2cc(F)ccc2N1C (stereo not shown) [Example 20, 10-fluoro-6,7-dimethyl-5-[1-(methylsulfonyl)-1,2,3,6-tetrahydropyridin-4-yl]-6,7-dihydro-4H-3,4,7-triazadibenzo[cd,f]azulene]
78 nM	–	150 nM	CN1CCc2c(C3=CCN(S(C)(=O)=O)CC3)[nH]c3nccc(c23)-c2cc(F)ccc21 [Example 128, 8-fluoro-5-methyl-2-[1-(methylsulfonyl)-1,2,3,6-tetrahydropyridin-4-yl]-1,3,4,5-tetrahydro-1,5,12-triazabenzo[4,5]cycloocta[1,2,3-cd]indene]
110 nM	470 nM	–	CN1Cc2c(C3=CCC(C(=O)N4CC(O)C4)CC3)[nH]c3nccc(c23)-c2cc(F)ccc21 (stereo not shown) [Example 51, [4-(10-fluoro-7-methyl-6,7-dihydro-4H-3,4,7-triazadibenzo[cd,f]azulen-5-yl)cyclohex-3-en-1-yl](3-hydroxyazetidin-1-yl)methanone]
30 nM	22 nM	–	CN1Cc2c(C3=CCN[C@@H](CO)C3)[nH]c3nccc(c23)-c2cc(F)ccc21 [Example 156, [(2R)-4-(10-fluoro-7-methyl-6,7-dihydro-4H-3,4,7-triazadibenzo[cd,f]azulen-5-yl)-1,2,3,6-tetrahydropyridin-2-yl]methanol]
480 nM	2100 nM	–	CN1Cc2c(C3=CCCN(CC(=O)N4CCC[C@H]4CO)C3)[nH]c3nccc(c23)-c2cc(F)ccc21 [Example 120, 2-[5-(10-fluoro-7-methyl-6,7-dihydro-4H-3,4,7-triazadibenzo[cd,f]azulen-5-yl)-3,6-dihydropyridin-1(2H)-yl]-1-[(2S)-2-(hydroxymethyl)pyrrolidin-1-yl]ethanone]
54 nM	300 nM	–	CN1Cc2c(C3=C[C@@H]4COC(=O)N4CC3)[nH]c3nccc(c23)-c2cc(F)c(F)cc21 [Example 125, (8aR)-7-(9,10-difluoro-7-methyl-6,7-dihydro-4H-3,4,7-triazadibenzo[cd,f]azulen-5-yl)-1,5,6,8a-tetrahydro[1,3]oxazolo[3,4-a]pyridin-3-one]
45 nM	6 nM	–	CN1Cc2c(C3=CCN(CC(=O)N4CCC[C@H]4CO)CC3)[nH]c3nccc(c23)-c2cc(F)c(F)cc21 [Example 147, 2-[4-(9,10-difluoro-7-methyl-6,7-dihydro-4H-3,4,7-triazadibenzo[cd,f]azulen-5-yl)-3,6-dihydropyridin-1(2H)-yl]-1-[(2S)-2-(hydroxymethyl)pyrrolidin-1-yl]ethanone]
120 nM	92 nM	–	CC(C)[C@H](NC1CC=C(c2[nH]c3nccc4c3c2CN(C)c2ccc(F)cc2-4)CC1)C(=O)O (stereo partly drawn) [Example 34, N-[4-(10-fluoro-7-methyl-6,7-dihydro-4H-3,4,7-triazadibenzo[cd,f]azulen-5-yl)cyclohex-3-en-1-yl]-L-valine]
88 nM	440 nM	–	CN1Cc2c(C3=CCN(C4CCC(C(C#N)C(=O)O)CC4)CC3)[nH]c3nccc(c23)-c2cc(F)ccc21 (stereo not shown) [Example 191, cyano{4-[4-(10-fluoro-7-methyl-6,7-dihydro-4H-3,4,7-triazadibenzo[cd,f]azulen-5-yl)-3,6-dihydropyridin-1(2H)-yl]cyclohexyl}acetic acid]
130 nM	99 nM	–	CCC[C@H](NC1CC=C(c2[nH]c3nccc4c3c2CN(C)c2ccc(F)cc2-4)CC1)C(=O)O (stereo partly drawn) [Example 39, N-[4-(10-fluoro-7-methyl-6,7-dihydro-4H-3,4,7-triazadibenzo[cd,f]azulen-5-yl)cyclohex-3-en-1-yl]-L-norvaline]
130 nM	490 nM	–	CN1Cc2c(-c3ccncc3)[nH]c3nccc(c23)-c2cc(F)ccc21 [Example 44, 10-fluoro-7-methyl-5-(pyridin-4-yl)-6,7-dihydro-4H-3,4,7-triazadibenzo[cd,f]azulene]
40 nM	65 nM	–	CN1Cc2c(C3=CCN(S(C)(=O)=O)CC3)[nH]c3ncc(F)c(c23)-c2ccccc21 [Example 161, 1-fluoro-7-methyl-5-[1-(methylsulfonyl)-1,2,3,6-tetrahydropyridin-4-yl]-6,7-dihydro-4H-3,4,7-triazadibenzo[cd,f]azulene]

Continued, compound first:

SMILES	IC50 [1]	IC50 [2, 3]	IC50 ([2]; 24 hours at 37° C.)
CN1Cc2c(C3=CCN(CC(=O)O)CC3)[nH]c3ncc(F)c(c23)-c2cc(F)ccc21 [Example 67, [4-(1,10-difluoro-7-methyl-6,7-dihydro-4H-3,4,7-triazadibenzo[cd,f]azulen-5-yl)-3,6-dihydropyridin-1(2H)-yl]acetic acid]	48 nM	130 nM	–
CN1Cc2c(C3=CCN([C@H]4CC[C@H](CC(=O)O)CC4)CC3)[nH]c3ncc(F)c(c23)-c2ccccc21 [Example 180, {trans-4-[4-(1-fluoro-7-methyl-6,7-dihydro-4H-3,4,7-triazadibenzo[cd,f]azulen-5-yl)-3,6-dihydropyridin-1(2H)-yl]cyclohexyl}acetic acid]	73 nM	11 nM	–
CN1Cc2c(C3=CCN(CC(=O)N4CC(O)C4)CC3(C)C)[nH]c3nccc(c23)-c2cc(F)ccc21 [Example 117, 2-[4-(10-fluoro-7-methyl-6,7-dihydro-4H-3,4,7-triazadibenzo[cd,f]azulen-5-yl)-3,3-dimethyl-3,6-dihydropyridin-1(2H)-yl]-1-(3-hydroxyazetidin-1-yl)ethanone]	960 nM	2400 nM	–
CC[C@H]1c2c(C3=CCN([C@H]4C[C@H](C(=O)O)C4)CC3)[nH]c3nccc(c23)-c2cc(F)ccc2N1C [Example 189, trans-3-{4-[(6S)-6-ethyl-10-fluoro-7-methyl-6,7-dihydro-4H-3,4,7-triazadibenzo[cd,f]azulen-5-yl]-3,6-dihydropyridin-1(2H)-yl}cyclobutanecarboxylic acid]	110 nM	6 nM	–
CN1Cc2c(C3=CCN(C4CCC(=CC#N)CC4)CC3)[nH]c3nccc(c23)-c2cc(F)ccc21 (stereo not shown) [Example 173, {4-[4-(10-fluoro-7-methyl-6,7-dihydro-4H-3,4,7-triazadibenzo[cd,f]azulen-5-yl)-3,6-dihydropyridin-1(2H)-yl]cyclohexylidene}acetonitrile]	45 nM	68 nM	–
CN1c2ccc(F)cc2-c2ccnc3[nH]c(C4=CCNCC4)c(c23)C1c1cnn(C)c1 (stereo not shown) [Example 10, 10-fluoro-7-methyl-6-(1-methyl-1H-pyrazol-4-yl)-5-(1,2,3,6-tetrahydropyridin-4-yl)-6,7-dihydro-4H-3,4,7-triazadibenzo[cd,f]azulene]	230 nM	360 nM	–
OCC(O)CN1CC=C(c2[nH]c3nccc4c3c2COc2ccc(F)cc2-4)CC1 (stereo not shown) [Example 164, 3-[4-(10-fluoro-4,6-dihydro-7-oxa-3,4-diazadibenzo[cd,f]azulen-5-yl)-3,6-dihydropyridin-1(2H)-yl]propane-1,2-diol]	130 nM	270 nM	–
CN(C)C(=O)CN1CC=C(c2[nH]c3nccc4c3c2CN(C)c2ncccc2-4)CC1 [Example 149, N,N-dimethyl-2-[4-(7-methyl-6,7-dihydro-4H-3,4,7,8-tetraazadibenzo[cd,f]azulen-5-yl)-3,6-dihydropyridin-1(2H)-yl]acetamide]	110 nM	160 nM	–
CN1Cc2c(C3=CCN(CC(=O)N4CC(F)(F)C4)CC3)[nH]c3nccc(c23)-c2cc(F)ccc21 [Example 54, 1-(3,3-difluoroazetidin-1-yl)-2-[4-(10-fluoro-7-methyl-6,7-dihydro-4H-3,4,7-triazadibenzo[cd,f]azulen-5-yl)-3,6-dihydropyridin-1(2H)-yl]ethanone]	63 nM	92 nM	–
CC[C@@H]1c2c(C3=CCNCC3)[nH]c3nccc(c23)-c2cc(F)ccc2N1C [Example 143, (6R)-6-ethyl-10-fluoro-7-methyl-5-(1,2,3,6-tetrahydropyridin-4-yl)-6,7-dihydro-4H-3,4,7-triazadibenzo[cd,f]azulene]	417 nM	582 nM	–
CN1Cc2c(C3=CC4CCCC(C3)N4CC(=O)N(C)C3CC(O)C3)[nH]c3nccc(c23)-c2cc(F)ccc21 (stereo not shown) [Example 106, 2-[3-(10-fluoro-7-methyl-6,7-dihydro-4H-3,4,7-triazadibenzo[cd,f]azulen-5-yl)-9-azabicyclo[3.3.1]non-2-en-9-yl]-N-(3-hydroxycyclobutyl)-N-methylacetamide]	66 nM	130 nM	–
